Data taken from publication PMC11893521, “Examining Farnesyltransferase Interaction With Cell‐Permeable CaaX Peptides and the Role of the CaaX Motif in Biological Activity” (Journal of Peptide Science, 2025).
Peptide text beside a SMILES is read from it.

Columns and labels:
rFTase = target: T1, rFTase (Rattus norvegicus, UniProt Q02293+Q04631); experiment: Mass spectrometry-based farnesylation assay (rFTase); assay type: biochemical; conditions: each peptide 18 h at 37°C with rFTase and FPP, LC-ESI-MS
T1 construct: purchased Jena Bioscience PR-102
Protocol: […] CaaX‐1 or scrambled control was incubated with 50‐nM recombinantly expressed hFTase or rFTase (Jena Bioscience, Cat#PR‐102) and 10‐μM farnesyl pyrophosphate (FPP) in reaction buffer (50‐mM Tris HCl pH 7.5, 5‐mM DTT, 5‐mM MgCl2, 10‐μM ZnCl2, and 0.2% n‐octyl‐beta‐D‐glucopyranoside) at 37°C for 18 h. Afterwards, the reaction mixture was desalted via C18 ZipTips (Merck Millipore). For this, ZipTips were washed with ACN and equilibrated in 0.1% FA in H2O. Then, the column was loaded with the reaction solution and subsequently washed with 0.1% FA in H2O and 5% MeOH in H2O each supplemented with 0.1% FA. Elution was performed using 50% ACN with 0.1% FA, and the eluted solution was analyzed by RP‐HPLC using a linear gradient of 10%–60% ACN in H2O with 0.1% FA or TFA using a flow rate of 0.6 or 1.0 mL/min, respectively, and by ESI‐MS analysis (LTQ‐XL, Thermo Scientific, Waltham, Massachusetts, USA).

HeLa cells = experiment: Resazurin-based cytotoxicity assay; assay type: cell-based; conditions: serum-free medium, 24 h, triplicate (n = 3)
Protocol: Cytotoxicity of the peptides to HeLa cells were investigated using a resazurin‐based cytotoxicity assay (Sigma Aldrich). For this, 14,000 HeLa cells were seeded in a 96‐well plate and grown in complete medium at 37°C to 80%–90% subconfluency. Cells were treated with different peptide dilutions in serum‐free medium at 37°C for 24 h. Untreated cells served as negative control and cells treated with 70% ethanol for 10 min as positive control. Cells were washed with PBS and subsequently incubated with a 10% resazurin solution in serum‐free medium for ~1 h. To determine the viability of the cells, the fluorescence was measured at 595 nm after excitation at 550 nm using a Tecan infinite M200 plate reader.

farnesylation by rFTase (CaaX-1 versus scrambled controls) (rFTase) | SMILES | cytotoxicity to HeLa cells at 100 μM (HeLa cells)
lack of catalytic conversion | CC[C@H](C)[C@H](NC(=O)[C@H](CS)NC(=O)[C@H](CCCCN)NC(=O)[C@H](CCCCN)NC(=O)[C@H](CC(N)=O)NC(=O)[C@H](CCCNC(=N)N)NC(=O)[C@H](Cc1ccccc1)NC(=O)[C@H](CCCCN)NC(=O)[C@H](CCCNC(=N)N)NC(=O)[C@H](CC(C)C)NC(=O)[C@H](CCCNC(=N)N)NC(=O)[C@H](CCCCN)NC(=O)[C@H](CCCNC(=N)N)NC(=O)[C@H](CC(C)C)NC(=O)CN)C(=O)N[C@@H](CCCCN)C(=O)N[C@H](C(=O)N[C@@H](CCSC)C(=O)N[C@H](C(=O)N[C@@H](CO)C(=O)O)[C@@H](C)O)C(C)C [CaaX‐1hscr] (H-GLRKRLRKFRNKKCIKVMTS-OH) | slight toxicity
lack of catalytic conversion | CC[C@H](C)[C@H](N)C(=O)N[C@H](C(=O)N[C@@H](Cc1ccccc1)C(=O)N[C@@H](CCCNC(=N)N)C(=O)N[C@@H](CCCCN)C(=O)N[C@@H](CCCCN)C(=O)N[C@@H](CC(C)C)C(=O)N[C@@H](CCCNC(=N)N)C(=O)N[C@@H](CCCCN)C(=O)N[C@@H](CCCCN)C(=O)N[C@@H](CS)C(=O)N[C@@H](CO)C(=O)N[C@@H](CCCCN)C(=O)NCC(=O)N[C@@H](CC(C)C)C(=O)N[C@H](C(=O)N[C@@H](CCCNC(=N)N)C(=O)N[C@@H](CCCNC(=N)N)C(=O)N[C@@H](CC(N)=O)C(=O)N[C@@H](CCSC)C(=O)O)C(C)C)[C@@H](C)O [scrCaaX‐1] (H-ITFRKKLRKKCSKGLVRRNM-OH) | –
